Assay results from ChEMBL document CHEMBL3217509, “Discovery of an HIV integrase inhibitor with an excellent resistance profile” (Medchemcomm, 2013).
pIC50: −log10 of the molar value.

What was measured:
Design in all cases: species or system Homo sapiens
[1] = Inhibition of DNA polymerase beta (unknown origin)
[2] = Inhibition of DNA polymerase gamma (unknown origin)
[3] = Inhibition of DNA polymerase alpha (unknown origin)

pIC50 [1]: 5.71
pIC50 [2]: 5.43
pIC50 [3]: 5.14
SMILES: Cc1cn([C@H]2C[C@H](N=[N+]=[N-])[C@@H](COP(=O)(O)OP(=O)(O)OP(=O)(O)O)O2)c(=O)[nH]c1=O [ZIDOVUDINE TRIPHOSPHATE]
